Assay: PXRD study of crystalline form stability in a 40° C./75% RH stability chamber
Type: physicochemical
Settings: capped and uncapped samples, at least one year
Description: Remdesivir napsylate Form APO-I can be characterized by a PXRD diffractogram comprising, among other peaks, characteristic peaks, expressed in degrees 2θ (±0.2°), at 5.1°, 6.5° and 13.1°. Preferably, the PXRD diffractogram further comprises at least three peaks, expressed in degrees 2θ (±0.2°), selected from the group consisting of 4.5°, 9.0°, 10.0°, 11.5°, 13.6°, 15.3°, 16.4°, 17.2°, 20.2° and 24.3°. More preferably, the PXRD diffractogram further comprises peaks, expressed in degrees 2θ (±0.2°), at 4.5°, 9.0°, 10.0°, 11.5°, 13.6°, 15.3°, 16.4°, 17.2°, 20.2° and 24.3°.
Remdesivir tosylate Form APO-I can be characterized by a PXRD diffractogram comprising, among other peaks, characteristic peaks, expressed in degrees […] (±0.2°), at 5.5°, 7.7° and 13.1°. Preferably, the PXRD diffractogram further comprises at least three peaks, expressed in degrees 2θ (±0.2°), selected from the group consisting of 4.5°, 6.5°, 9.1°, 9.8°, 16.0°, 16.6°, 17.1°, 17.5°, 18.4° and 20.0°. More preferably, the PXRD diffractogram further comprises peaks, expressed in degrees 2θ (±0.2°), at 4.5°, 6.5°, 9.1°, 9.8°, 16.0°, 16.6°, 17.1°, 17.5°, 18.4° and 20.0°.
The PXRD diffractogram was recorded on a Bruker D8 Discover powder X-ray diffractometer (Bruker-AXS, Karlsruhe, Germany). […] Raw data was evaluated using the program EVA (Bruker-AXS, Karlsruhe, Germany).

## CCC(CC)COC(=O)C(C)NP(=O)(OCC1OC(C#N)(c2ccc3c(N)ncnn23)C(O)C1O)Oc1ccccc1.O=S(=O)(O)c1ccc2ccccc2c1 (centres unmarked) [remdesivir napsylate Form APO-I, remdesivir naphthalene-2-sulfonate Form APO-I]
  change in the crystalline form by PXRD: no change in the crystalline form occurred

## CCC(CC)COC(=O)[C@H](C)N[P@](=O)(OC[C@H]1O[C@@](C#N)(c2ccc3c(N)ncnn23)[C@H](O)[C@@H]1O)Oc1ccccc1.Cc1ccc(S(=O)(=O)O)cc1 [remdesivir tosylate Form APO-1, remdesivir tosylate Form APO-I]
  change in the crystalline form by PXRD: no change in the crystalline form occurred
